Values after ≈ are worked out from the molar mass of the structure shown.

One test concerns M. tuberculosis H37Rv. The test is described as follows: MIC determination by Microplate Alamar Blue Assay (MABA) against H37Rv. The class given is cell-based, Mycobacterium tuberculosis. As to conditions: Mycobacterium tuberculosis, H37RV; Alamar assay, confirmatory testing alongside drug-resistant strains; read-out: MIC H37Rv. (In general: The colour change of resazurin is a common sign of viable cells or microbes.)

Test [1] concerns isoniazid-resistant Mycobacterium tuberculosis (ATCC 35822). Kind of test: microbe, parasite or virus in culture. The class given is cell-based. The note with it: ATCC35822, read-out: MIC INH-R.
Test [2] deals with rifampin-resistant Mycobacterium tuberculosis (ATCC 35838). Kind of test: microbe, parasite or virus in culture. The class given is cell-based. As to conditions: ATCC35838, Alamar assay.
The test system of test [3] is ethambutol-resistant Mycobacterium tuberculosis. Kind of test: microbe, parasite or virus in culture. The class given is cell-based. As to conditions: read-out: MIC EMB-R.
Test [4] has as its system kanamycin-resistant Mycobacterium tuberculosis. The test is described as follows: microbe, parasite or virus in culture. The class given is cell-based. The note with it: read-out: MIC KM-R.
In test [5] the test system is ciprofloxacin-resistant Mycobacterium tuberculosis. Kind of test: microbe, parasite or virus in culture. The class given is cell-based. The note with it: read-out: MIC CIP-R.
In test [6] the test system is single-drug resistant M. tuberculosis strains. The class given is cell-based, Mycobacterium tuberculosis. As to conditions: judged from the ratios in Table 5.

Turning to `CC(=O)Nc1ccc(/C=N/NC(N)=S)cc1F` [Compound 16, 4-Acetamido-3-fluorobenzaldehyde thiosemicarbazone], the MIC was not above 0.1 µg/mL in the test with M. tuberculosis H37Rv; not above 0.1 µg/mL in test [1]; not above 0.1 µg/mL in test [2]; 0.2 µg/mL (≈ 0.787 µM) in test [3]; not above 0.1 µg/mL in test [4]; not above 0.1 µg/mL in test [5]. In addition, the “cross-resistance with isoniazid, rifampin, ethambutol, kanamycin or ciprofloxacin” value in test [6] is listed as “no cross-resistance”.

Consider `Nc1cc(O)c(C(=O)O)cc1F` [Compound 12, 4-Amino-5-fluorosalicylic Acid], for which the MIC in the test with M. tuberculosis H37Rv is not above 3.13 µg/mL; in test [1] it was 25 µg/mL (≈ 146 µM); in test [2] it was 6.25 µg/mL (≈ 36.5 µM); in test [3], not above 3.13 µg/mL; in test [4], 6.25 µg/mL (≈ 36.5 µM); in test [5], 6.25 µg/mL (≈ 36.5 µM).

Values taken from US6482982B1, “Halogenated antituberculosis agents” (University of Sciences of Philadelphia, priority 2001, dated 2002).
